Reference: patent publication US20150322001A1, “OMEGA-3 ANALOGUES” (The University of Sydney, priority 2012, published 2015)

Key:
[1] = test system: MDA-MB-231 cells; assay: Matrigel assay, migration of MDA-MB-231 cells out of matrigel droplets; type: cell-based, human
Description: This supports the finding that these compounds are effective against metastatic cancer cells.
(§1) • 1. Cell culture and cell treatment: Breast cancer MDA-MB-231 cells were maintained in monolayers at 37° C. in DMEM containing penicillin and streptomycin, L-glutamine and 10% fetal bovine serum in an atmosphere of 95% air and 5% CO2. Cells were seeded into multi-well plates at 5×10^4 cells/mL; media was replaced 24 h later with fresh serum-free DMEM containing one of the test compounds in DMSO. DMSO was added to control cells at a final concentration of 0.1%. • 2. MTT assay: MDA-MB-231 cells were seeded in 96 well plates (0.2 mL/well), treated with compounds at 0.01, 0.1, 0.5, 1, 5 and 10 μM for 24 h. […] The blue formazan product formed from MTT by live cells was dissolved in DMSO (100 μL/well) and quantified spectrophotometrically at 540 nm in a multilabel counter. IC50s were calculated using GraphPad Prism (Prism 5.01). • 3. […] Caspase 3 activity was quantified using the Caspase-Glo 3/7 assay kit according to manufacturer's protocol (Promega). […] Cells were equilibrated at room temperature for 30 min, caspase 3/7 substrate in lysis buffer was added and the luminescence was measured. Relative caspase 3/7 activity was calculated as [(luminescence in treatment−luminescence in control)/luminescence in control×100%]. • 4. […]

[2] = test system: MDA-MB-231 cells; assay: MTT assay, inhibition of proliferation of MDA-MB-231 cells; type: cell-based, human; conditions: Homo sapiens, MTT reduction, 24 h
Description: The synthesized compounds given in Table 1 were tested for their activity in inhibiting the proliferation of MDA-MB-231 cells.
• 1. Cell culture and cell treatment: Breast cancer MDA-MB-231 cells were maintained in monolayers at 37° C. in DMEM containing penicillin and streptomycin, L-glutamine and 10% fetal bovine serum in an atmosphere of 95% air and 5% CO2. Cells were seeded into multi-well plates at 5×10^4 cells/mL; media was replaced 24 h later with fresh serum-free DMEM containing one of the test compounds in DMSO. DMSO was added to control cells at a final concentration of 0.1%. • 2. MTT assay: MDA-MB-231 cells were seeded in 96 well plates (0.2 mL/well), treated with compounds at 0.01, 0.1, 0.5, 1, 5 and 10 μM for 24 h. MTT (25 μL of 2.5 mg/mL solution) was added to each well for 2 h, after which MTT and media were removed. The blue formazan product formed from MTT by live cells was dissolved in DMSO (100 μL/well) and quantified spectrophotometrically at 540 nm in a multilabel counter. IC50s were calculated using GraphPad Prism (Prism 5.01). • 3. Caspase 3 activity: MDA-MB-231 cells were seeded in 96 well plates (0.2 mL/well), and were treated with compounds at 0.1, 0.5 and 1 μM for 24 h. Caspase 3 activity was quantified using the Caspase-Glo 3/7 assay kit according to manufacturer's protocol (Promega). Briefly, after 24 h treatment, fresh serum-free media was added to wells. Cells were equilibrated at room temperature for 30 min, caspase 3/7 substrate in lysis buffer was added and the luminescence was measured. Relative caspase 3/7 activity was calculated as [(luminescence in treatment−luminescence in control)/luminescence in control×100%]. • 4. Annexin V assay: MDA-MB-231 cells were seeded in 6 well plates (3 mL/well), and were treated with compounds at 0.1, 0.5 and 1 μM for 24 h. The apoptotic cells were quantified by Annexin V staining according to the manufacture's protocol (BD Biosciences). Briefly, after 24 h treatment, the media and harvested cells were collected, followed by PBS washes. Cells were stained with Annexin V and PI in binding buffer for 15 min at room temperature and quantified by flow cytometry (BD Biosciences). The apoptotic cells (%) were calculated as [(Annexin V positive cells in treatment−Annexin V positive cells in control)/Annexin V positive cells in control×100%]. • 5. Matrigel assay: MDA-MB-231 cells were trypsinized and resuspended in serum-free DMEM media (3.5×10^6 cells/mL). The cell suspension was mixed 1:1 with Matrigel solution (Bio Scientific). Aliquots (20 μL containing 3.5×10^4 cells) were placed into 6-well tissue-culture dishes to form well-defined droplets and incubated at 37° C. for 5 min to enable semi-solidification. Migration media was freshly made as DMEM containing 20% fetal bovine serum, epidermal growth factor 10 pg/mL, hydrocortisone 0.4 ng/mL, vascular endothelial growth factor (VEGF, 1 pg/mL), basic fibroblast growth factor (bFGF, 20 pg/mL), insulin-like growth factor-1 (40 pg/mL), ascorbic acid (2 ng/mL) and heparin (45 ng/mL). Compounds were added in migration media (3 mL/well) and plates were then incubated for 24 h. Cells that migrated out of droplets were scored using phase-contrast microscopy and digital image analysis (Olympus). • 6. Real-time RT PCR: Cell droplets from migration assays were collected, and total RNA was extracted using Tri Reagent (Astral Scientific) according to the manufacturer's protocol. RNA samples were treated with DNase (Promega) and gene expression was quantified using an Express Onestep Superscript qRT-PCT kit (Invitrogen) and gene-specific primers: heparanase (forward) […] and (reverse) GCAGCAACTTTGGCATTTC, integrin-α3 (forward) […] and (reverse) […], actin (forward) […] and (reverse) […]. The cycling conditions (Roto-Gene™ 6000; Corbett Research) were as follows: 95° C. (15 min); 40 cycles of denaturation (95° C., 30 s); annealing (60° C., 1 min); elongation (72° C., 1 min). […]

[3] = test system: MDA-MB-231 cells; assay: Caspase 3 activity (Caspase-Glo 3/7) in MDA-MB-231 cells; type: cell-based, human; conditions: 0.1 μM, FIG. 1
Description: (§2) • 1. Cell culture and cell treatment: Breast cancer MDA-MB-231 cells were maintained in monolayers at 37° C. in DMEM containing penicillin and streptomycin, L-glutamine and 10% fetal bovine serum in an atmosphere of 95% air and 5% CO2. Cells were seeded into multi-well plates at 5×10^4 cells/mL; media was replaced 24 h later with fresh serum-free DMEM containing one of the test compounds in DMSO. DMSO was added to control cells at a final concentration of 0.1%. • 2. MTT assay: MDA-MB-231 cells were seeded in 96 well plates (0.2 mL/well), treated with compounds at 0.01, 0.1, 0.5, 1, 5 and 10 μM for 24 h. […] The blue formazan product formed from MTT by live cells was dissolved in DMSO (100 μL/well) and quantified spectrophotometrically at 540 nm in a multilabel counter. IC50s were calculated using GraphPad Prism (Prism 5.01). • 3. […] Caspase 3 activity was quantified using the Caspase-Glo 3/7 assay kit according to manufacturer's protocol (Promega). […] Cells were equilibrated at room temperature for 30 min, caspase 3/7 substrate in lysis buffer was added and the luminescence was measured. Relative caspase 3/7 activity was calculated as [(luminescence in treatment−luminescence in control)/luminescence in control×100%]. • 4. […] The apoptotic cells were quantified by Annexin V staining according to the manufacture's protocol (BD Biosciences). […]

[4] = test system: MDA-MB-231 cells; assay: Annexin V assay (apoptotic cells) in MDA-MB-231 cells; type: cell-based, human; conditions: FIG. 2
Description: as §2

[5] = test system: MDA-MB-468 cells; assay: MTT reduction in MDA-MB-468 cells; type: cell-based; conditions: compared with MDA-MB-231
[6] = test system: MCF-7 cells; assay: MTT reduction in MCF-7 cells; type: cell-based; conditions: compared with MDA-MB-231
Description: These are also breast cancer cell lines, but are less aggressive than the MDA-MD-231 cells.
as §1

| SMILES | IC50 ([1]; Homo sapiens, MDA-MB-231, matrigel assay, read-out: IC50 (concentration at which migration is inhibited to 50% of control)) [µM] | IC50 [2] [nM] | caspase-3 activity [3] | Annexin V staining (early apoptosis) [4] | migration of cells in the matrigel assay ([1]; 10 μM) | inhibition of MTT reduction [5] | inhibition of MTT reduction [6] |
| --- | --- | --- | --- | --- | --- | --- | --- |
| Cc1ccc(NC(=O)NCCCCCCCCCCCCCCCC(=O)O)cc1 [Compound 16, 16-{[(4-methylphenyl)carbamoyl]amino}hexadecanoic acid] | 3.8 | 750 | particularly good | increases this substantially |  |  |  |
| CCNC(=O)NCCCCCCCCCCCCCCCC(=O)O [Compound 19, 16-[(ethylcarbamoyl)amino]hexadecanoic acid] |  | 1800 |  |  | 61±5 % of control | inhibited MTT reduction | inhibited MTT reduction |
